# Source: paper PMC8704748, “Repurposing the Trypanosomatidic GSK Kinetobox for the Inhibition of Parasitic Pteridine and Dihydrofolate Reductases” (Pharmaceuticals, 2021)
# “Also recorded” adds a separate entry of the source. Read-outs that look alike come from different tables or passages of the source.
# Assays:
# TbPTR1 = molecular target: T1, TbPTR1 (Trypanosoma brucei brucei, UniProt O76290); experiment: TbPTR1 inhibition, Cytochrome C coupled spectrophotometric assay; assay type: biochemical; details: for IC50: recombinant protein, standard errors within ± 10%; for inhibition at 10 µM: primary screening, read-out: percentage of inhibition TbPTR1
# T1 sequence (O76290 1-268): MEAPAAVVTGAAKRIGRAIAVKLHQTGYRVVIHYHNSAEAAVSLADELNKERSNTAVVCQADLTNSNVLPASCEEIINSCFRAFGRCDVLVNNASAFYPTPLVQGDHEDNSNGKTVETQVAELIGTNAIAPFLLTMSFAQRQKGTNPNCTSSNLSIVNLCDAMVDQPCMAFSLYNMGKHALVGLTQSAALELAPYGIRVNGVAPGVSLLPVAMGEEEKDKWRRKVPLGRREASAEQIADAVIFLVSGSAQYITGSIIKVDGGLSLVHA
# LmPTR1 = molecular target: T2, LmPTR1 (Leishmania major, UniProt Q01782); experiment: LmPTR1 inhibition, Cytochrome C coupled spectrophotometric assay; assay type: biochemical; details: for inhibition at 10 µM: primary screening, read-out: percentage of inhibition LmPTR1; for IC50: recombinant protein, standard errors within ± 10%
# T2 sequence (Q01782 1-288): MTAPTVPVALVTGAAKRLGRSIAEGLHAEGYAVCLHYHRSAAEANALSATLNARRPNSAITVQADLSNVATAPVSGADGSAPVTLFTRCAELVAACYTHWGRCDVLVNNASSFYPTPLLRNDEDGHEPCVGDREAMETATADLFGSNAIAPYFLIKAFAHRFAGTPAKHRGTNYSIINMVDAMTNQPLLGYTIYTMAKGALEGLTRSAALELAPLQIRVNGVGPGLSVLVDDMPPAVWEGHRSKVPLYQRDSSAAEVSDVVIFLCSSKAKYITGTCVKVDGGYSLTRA
# TbDHFR-TS = TbDHFR-TS (Trypanosoma brucei brucei, UniProt Q27783); experiment: TbDHFR-TS inhibition, spectrophotometric DHF reduction assay (dose-response); assay type: biochemical; details: recombinant TbDHFR-TS; 40, 20 and 10 µM tested; standard errors within ± 10%
# LmDHFR-TS = LmDHFR-TS (Leishmania major, UniProt P07382); experiment: LmDHFR-TS inhibition, spectrophotometric DHF reduction assay (dose-response); assay type: biochemical; details: recombinant LmDHFR-TS; 40, 20 and 10 µM tested; standard errors within ± 10%
# T. brucei = test system: T. brucei; set-up: method as in PMID 25740547; details: parasite growth inhibition, data from open resource GSK database ref 21, cited from earlier work
# L. donovani = test system: L. donovani; set-up: method as in PMID 25740547; details: parasite growth inhibition, data from open resource GSK database ref 21, cited from earlier work
# T. cruzi = test system: T. cruzi; set-up: method as in PMID 25740547; details: parasite growth inhibition ref 21; cited from earlier work
# Sequence of TbDHFR-TS (Q27783 whole entry): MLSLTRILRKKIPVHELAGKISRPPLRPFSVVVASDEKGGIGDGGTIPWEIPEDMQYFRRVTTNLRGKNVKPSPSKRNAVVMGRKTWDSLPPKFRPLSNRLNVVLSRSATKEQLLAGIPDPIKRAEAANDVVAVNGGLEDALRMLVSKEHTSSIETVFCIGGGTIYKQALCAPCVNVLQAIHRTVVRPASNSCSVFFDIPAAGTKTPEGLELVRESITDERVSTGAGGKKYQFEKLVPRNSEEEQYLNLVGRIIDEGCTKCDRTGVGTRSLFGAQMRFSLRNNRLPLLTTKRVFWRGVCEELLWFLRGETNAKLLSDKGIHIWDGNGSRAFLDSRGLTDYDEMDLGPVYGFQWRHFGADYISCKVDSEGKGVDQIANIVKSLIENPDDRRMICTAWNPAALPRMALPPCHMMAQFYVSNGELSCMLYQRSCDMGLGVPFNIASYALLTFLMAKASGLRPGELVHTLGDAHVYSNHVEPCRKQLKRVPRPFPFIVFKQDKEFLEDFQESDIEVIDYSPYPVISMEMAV
# Sequence of LmDHFR-TS (P07382 whole entry): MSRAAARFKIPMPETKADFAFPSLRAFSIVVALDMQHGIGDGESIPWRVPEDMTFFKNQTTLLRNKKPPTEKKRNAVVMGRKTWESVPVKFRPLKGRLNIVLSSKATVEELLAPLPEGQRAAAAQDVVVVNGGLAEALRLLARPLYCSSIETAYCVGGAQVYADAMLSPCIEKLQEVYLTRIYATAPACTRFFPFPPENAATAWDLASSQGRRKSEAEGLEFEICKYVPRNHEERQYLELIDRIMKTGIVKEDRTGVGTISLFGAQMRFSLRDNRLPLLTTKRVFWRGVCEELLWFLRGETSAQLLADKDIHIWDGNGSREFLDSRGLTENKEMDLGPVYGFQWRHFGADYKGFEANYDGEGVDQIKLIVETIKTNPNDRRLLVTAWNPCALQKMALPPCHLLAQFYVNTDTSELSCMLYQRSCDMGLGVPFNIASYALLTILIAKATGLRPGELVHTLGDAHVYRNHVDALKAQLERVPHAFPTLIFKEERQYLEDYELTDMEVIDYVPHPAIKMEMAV
IC50 (TbPTR1) [µM],inhibition at 10 µM (LmPTR1) [%],IC50 (LmPTR1) [µM],IC50 (TbDHFR-TS) [µM],IC50 (LmDHFR-TS) [µM],inhibition at 10 µM (TbPTR1) [%],IC50 (TbPTR1; listed as 143606) [µM],IC50 (LmPTR1; listed as 143606) [µM],Structure (SMILES),EC50 (T. brucei) [µM],EC50 (L. donovani) [µM],IC50 TbDHFR (TbDHFR-TS),IC50 LmDHFR (LmDHFR-TS),EC50 (T. cruzi) [µM],EC50 (T. brucei; listed as 143606) [µM],EC50 (L. donovani; listed as 143606) [µM]
35,75,6.7,> 40,25.8,,,,O=C1NCCn2ccc(Nc3nc(N[C@H]4CC[C@H](O)CC4)ncc3Cl)c21 [TCMDC-143386],0.6,1.4,,,,,
9.8,,> 40,> 40,> 40,51,,,Cc1nc2c(-c3ncn[nH]3)cc(NC(=O)Cc3ccccc3)cn2c1C [TCMDC-143459],6.6,0.5,,,,,
33.3,59,8.5,> 40,25,,,,CCN(Cc1nc2ccc(C(=O)N3CCN(c4ncccn4)CC3)cc2[nH]1)C1CCCc2cccnc21 (centres unmarked) [TCMDC-143518],3.8,3.5,,,,,
7.3,,9.3,38.2,40,,,,COc1ccccc1-c1c(C)[nH]c2nc(N)nc(C)c12 [TCMDC-143610],32.5,17.9,,,,,
9.8,,5.7,11.6,20.1,,,,CC(c1cc(Cl)cc(Cl)c1)N(C)c1ncc2c(N)nc(N)nc2n1 (centres unmarked) [TCMDC-143297],35.7,0.6,,,,,
8.1,,6,> 40,> 40,,,,COc1ccc(C(C)N(C)c2ncc3c(N)nc(N)nc3n2)cc1F (centres unmarked) [TCMDC-143298],8.8,10.8,did not show any activity,did not show any activity,,,
~6,,~6,> 40,19.4,,6.4,6.8,CCCc1nc2nc(N)nc(N)c2cc1CC [TCMDC-143606],~20,~20,,,,22.5,27.2
7.3,,8.1,> 40,> 40,,,,Cc1cc(-c2ccc3ccccc3c2)nc2nc(N)nc(N)c12 [TCMDC-143607],25.8,2.7,,,,,
9.8,,38.5,> 40,> 40,51,,,Cc1ccc2c(c1)-c1onc(C(=O)N3CCCC[C@H]3c3cccnc3)c1CO2 [TCMDC-143191],39.8,> 40,,,,,
8.6,,6.5,9.7,6.9,,,,CC(c1ccc2c(c1)CCCC2)N(C)c1ncc2c(N)nc(N)nc2n1 (centres unmarked) [TCMDC-143296],14.2,1.8,,,,,
8.9,,9.8,> 40,> 40,,,,Cc1cc(N(C)C)nc2ccc(Cc3cnc(N)nc3N)cc12 [TCMDC-143611],5,> 40,,,,,

Structure (SMILES),IC50 (TbPTR1) [µM],inhibition at 10 µM (LmPTR1) [%],IC50 (LmPTR1) [µM],IC50 (TbDHFR-TS) [µM],IC50 (LmDHFR-TS) [µM],inhibition at 10 µM (TbPTR1) [%],IC50 (TbPTR1; listed as 143606) [µM],IC50 (LmPTR1; listed as 143606) [µM],EC50 (T. brucei) [µM],EC50 (L. donovani) [µM],IC50 TbDHFR (TbDHFR-TS),IC50 LmDHFR (LmDHFR-TS),EC50 (T. cruzi) [µM],EC50 (T. brucei; listed as 143606) [µM],EC50 (L. donovani; listed as 143606) [µM]
COc1ccc(Oc2ccc(C(C)N(C)c3ncc4c(N)nc(N)nc4n3)cc2)cc1 (centres unmarked) [TCMDC-143295],7.9,,6.7,> 40,16.6,,,,,0.06,not active,,,,
N#Cc1cccc(Nc2nccc(N3CCC(NS(=O)(=O)c4cccc(C#N)c4)CC3)n2)c1 [TCMDC-143249],13.5,,6,> 40,> 40,,,,6.3,5.6,inactive; also recorded: no inhibition,inactive; also recorded: no inhibition,4.2,,
CN(Cc1cc2ccccc2s1)c1ncc2c(N)nc(N)nc2n1 [TCMDC-143232],10.9,,5.9,> 40,24.4,,,,28.4,29.5,not active,,,,
